From PubChem BioAssay AID2060343 (Molecular Pharmacology Branch, DTP, NCI, 2025) come the findings set out here.

The test system of this experiment is 138582-337-R-J1-PDC spheroids with HUVEC/MSC, viability. Kind of experiment: Anticancer human tumor 138582-337-R-J1-PDC patient-derived Merkel cell tumor cell line growth inhibition [IpAb]. To be noted: for viability, T/C: stronger effect = lower value. An excerpt:
Combinatorial screen of targeted agents with ipatasertib and abemaciclib in multi-cell type tumor spheroids
A high-throughput screen of multi-cell type tumor spheroids was designed to identify active combinations of targeted small molecules and ipatasertib or abemaciclib. Complex spheroids include a stromal component modeled by human endothelial cells (HUVEC) and fibroblasts modeled by human mesenchymal stem cells (MSCs). The concentration ranges selected for each drug and investigational agent were based upon clinically achievable concentrations if the clinical Cmax of the agent was known.
Compounds. The drugs and investigational agents: ipatasertib (NSC767898), abemaciclib(NSC768073), selumetinib (NSC741078), trametinib (758246), adavosertib (NSC754352), everolimus (NSC733504), sapanisertib (NSC764658), vemurafenib (NSC761431), venetoclax (NSC766270), copanlisib (NSC809693), apelisib (NSC765974), palbociblib (NSC758247), vemurafenib (NSC761431), dabrafenib (NSC764134), ravoxertinib (NSC781343), BMS-387032 (NSC767048), sotorasib (NSC818433), talazoparib (NSC767125) and afursertib (NSC778305), were obtained from the National Cancer Institute (NCI) Developmental Therapeutics Program Chemical Repository. The FDA-approved anticancer drug set is available from the NCI Developmental Therapeutics Program. […] The stock solutions were prepared in dimethyl sulfoxide (DMSO, Sigma-Aldrich, St. Louis, MO, cat. D2650) at 800-fold the tested concentration and stored at -70 degrees C prior to their use. All drugs and investigational agents were tested over a range starting from a high concentration at or near the clinical Cmax and decreasing in half-log increments. If the clinical Cmax for an agent had not been determined, the highest concentration tested was 10 microM.
NCI60 Cell Culture. NCI60 cell lines were obtained from the NCI Developmental Therapeutics Program Tumor Repository. For each lot of cells, the Repository performed Applied Biosystems AmpFLSTR Identifiler testing with PCR amplification to confirm consistency with the published Identifier STR profile for each cell line. Cells were kept in continuous culture for no more than 20 passages. The optimal seeding densities for each of the cell lines at each time point assessed were determined prior to performing the concentration response studies. Briefly, the NCI60 human tumor lines were grown as monolayers in RPMI 1640 medium supplemented with 10% FBS and 2 mmol/L L-glutamine.
An additional 9 lines were from the NCI60 cell line panel including MDA-MB-231 breast carcinoma, MDA-MB-468 breast carcinoma, MCF7 breast carcinoma, Hs578T breast carcinoma, MALME-3M melanoma, SK-MEL-2 melanoma, SK-OV-3 ovarian carcinoma, DU-145 prostate carcinoma, PC-3 prostate carcinoma, all cell lines along with major genetic alterations are listed on Table 2. Pooled donor human umbilical vein endothelial cells (HUVEC, Lonza, cat. CC-2519) and human mesenchymal stem cells (hMSC, Lonza, cat. PT-2501) were purchased from Lonza (Walkersville, MD).
PDMR cell lines were grown in complete medium (DC medium): Dulbecco's modified Eagle's medium (DMEM)/F12 supplemented with 5% fetal bovine serum (FBS), 2 mM L-glutamine, 100 U/mL penicillin and 100 µg/ml streptomycin, 0.4 µg/ml hydrocortisone, 10 ng/ml epidermal growth factor (EGF) recombinant human protein, 24 µg/mL adenine, and 0.1 mg/mL primocin. During culture from frozen stock vials, PDMR cells were cultured in the same medium containing 10 µM Y-27632 (see Table 3). The PDCs were cultured in complete DMEM/F12 media without 10 microM Y-27632 dihydrochloride for at least two passages prior to the screen. The pooled donor HUVEC and hMSC were cultured in endothelial cell growth medium 2 (PromoCell, Heidelberg, Germany, cat. C-22011) and mesenchymal stem cell growth medium 2 (PromoCell, cat. C-28009), respectively. For all experiments, HUVEC and hMSC were used at passages </=5.
[…]

Several values for one entry are separate records, joined by “and”; a condition that tells them apart may be missing. Equal values may be shown once.
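Note: spheroids exposed to compounds for seven days.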
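Throughout, for viability, T/C: 100% = DMSO vehicle control viability.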

As to `Cc1nc(NC(=O)N2CCCC2C(N)=O)sc1-c1ccnc(C(C)(C)C(F)(F)F)c1` (configuration not stated) + CCN1CCN(Cc2ccc(Nc3ncc(F)c(-c4cc(F)c5nc(C)n(C(C)C)c5c4)n3)nc2)CC1, the IC50 (curve of first compound, second compound 0.01 µM) was found to be 1.85 µM; the IC50 (curve of first compound, second compound 0.0316 µM) turned out to be 1.41 µM; the concentration for half-maximal inhibition (IC50) (curve of first compound, second compound 0.1 µM) was determined as 1.14 µM; the IC50 (curve of first compound, second compound 0.316 µM) amounted to 1.01 µM; the IC50 (curve of first compound, second compound 1 µM) came to 0.462 µM. Moreover, the viability, T/C is, setting by setting: (second compound 0.01 µM, first compound 0.0316 µM) 95.2%; (second compound 0.01 µM, first compound 0.1 µM) 81.4%; (second compound 0.01 µM, first compound 0.316 µM) 73.2%; (second compound 0.01 µM, first compound 1 µM) 59%; (second compound 0.01 µM, first compound 3.16 µM) 45.4%; (second compound 0.01 µM, first compound 10 µM) 13.7%. In addition, the viability, T/C (second compound 0.0316 µM, first compound 0.0316 µM) is 94.1%; the viability, T/C (second compound 0.0316 µM, first compound 0.1 µM) is 82.3%; the viability, T/C (second compound 0.0316 µM, first compound 0.316 µM) was 69%; the viability, T/C (second compound 0.0316 µM, first compound 1 µM) was 55.4%; the viability, T/C (second compound 0.0316 µM, first compound 3.16 µM) was 40.1%; the viability, T/C (second compound 0.0316 µM, first compound 10 µM) is 18.2%. The viability, T/C reads like this: (second compound 0.1 µM, first compound 0.0316 µM) 88.1%; (second compound 0.1 µM, first compound 0.1 µM) 78.7%; (second compound 0.1 µM, first compound 0.316 µM) 59.2%; (second compound 0.1 µM, first compound 1 µM) 56.4%; (second compound 0.1 µM, first compound 3.16 µM) 35.2%; (second compound 0.1 µM, first compound 10 µM) 9.25%. The viability, T/C was 90.8% (second compound 0.316 µM, first compound 0.0316 µM); 74.8% (second compound 0.316 µM, first compound 0.1 µM); 69.7% (second compound 0.316 µM, first compound 0.316 µM); 48.2% (second compound 0.316 µM, first compound 1 µM); 32.1% (second compound 0.316 µM, first compound 3.16 µM); 6.45% (second compound 0.316 µM, first compound 10 µM). In addition, the viability, T/C is 89.3% (second compound 1 µM, first compound 0.0316 µM); 84.2% (second compound 1 µM, first compound 0.1 µM); 54.4% (second compound 1 µM, first compound 0.316 µM); 35.1% (second compound 1 µM, first compound 1 µM); 10.7% (second compound 1 µM, first compound 3.16 µM); 1.63% (second compound 1 µM, first compound 10 µM).
As to `Cc1nc(NC(=O)N2CCCC2C(N)=O)sc1-c1ccnc(C(C)(C)C(F)(F)F)c1` (configuration not stated), the viability, T/C (compound 0.0316 µM) is 97.5% and 84.4%; the viability, T/C (compound 0.1 µM) was 80.2% and 88.7%; the viability, T/C (compound 0.316 µM) was 65.3% and 69.1%; the viability, T/C (compound 1 µM) is 59.3% and 53.7%; the viability, T/C (compound 3.16 µM) was 52.5% and 46.1%; the viability, T/C (compound 10 µM) is 29.6% and 18.7%. Also, under “curve of compound”, the IC50 is 2.03 µM and 1.79 µM.
